# What was measured:
# MDA-MB-435 cells = assay: Chemotherapeutic sensitivity of MDA-MB-435 cells on extracellular matrices with anti-LOXL2 antibody; type: cell-based, human; conditions: MDA-MB-435 cells plated on different extracellular matrices
# Description: (§1) MDA-MB-435 cells (breast adenocarcinoma cell lines, ATCC, Manassas, Va.) are resuspended in medium containing 10-50 μg/mL anti-LOXL2 or control IgG antibody. Cells are seeded into 96 well tissue culture plates (10^3-10^4 cells in 100 μL per well) coated with poly-L-lysine, collagen I, collagen IV, fibronectin, or Matrigel™ (BD Biosciences, San Jose, Calif.). Alternatively, cells are plated in standard 96 well tissue culture plates (Costar, VWR International, West Chester, Pa.). Cells are incubated overnight at 37° C. in a 5% CO2 incubator. After sixteen to twenty hours, various concentrations of cisplatin (DDP), methotrexate, doxorubicin, docetaxel, gemcitabine, or 5-FU are added. Cells are incubated for 3-5 days at 37° C. in a 5% CO2 incubator, and the number of remaining live cells are quantified using the Cell Titer-Glo® luminescent cell viability assay (Promega, Madison, Wis.) according to the manufacturer's instructions. For each condition, samples are assayed in triplicate. The data are analyzed using GraphPad Prism software (or equivalent) to calculate IC50 values from a 4-parameter logistic equation.
# Panc-1 cells = assay: Chemotherapeutic sensitivity of Panc-1 cells on extracellular matrices with anti-LOXL2 antibody; type: cell-based; conditions: Panc-1 cells plated on different extracellular matrices
# Description: as §1, with “Panc-1 or Capan-1” for “MDA-MB-435”, “(pancreas” for “(breast”, “gemcitabine, docetaxel,” for “cisplatin (DDP), methotrexate,”, “5-FU” for “docetaxel, gemcitabine,”, “erlotinib” for “5-FU”
# Capan-1 cells = assay: Chemotherapeutic sensitivity of Capan-1 cells on extracellular matrices with anti-LOXL2 antibody; type: cell-based; conditions: Capan-1 cells plated on different extracellular matrices
# Description: as §1, with “Panc-1 or Capan-1” for “MDA-MB-435”, “(pancreas” for “(breast”, “gemcitabine, docetaxel,” for “cisplatin (DDP), methotrexate,”, “5-FU” for “docetaxel, gemcitabine,”, “erlotinib” for “5-FU”
# MDA231 cells = assay: Erlotinib sensitivity (live cell number) of siRNA-transfected MDA231 cells; type: cell-based, human; conditions: for effect of siRNA transfection on sensitivity of the cells to erlotinib: MDA 231 cells grown on collagen, 5 days exposure to erlotinib; for effect of siRNA on sensitivity of the cells to erlotinib: MDA 231 cells grown on tissue culture plastic, separate experiments
# Description: Cells from each of the four aforementioned lines were seeded at 3,000 cells per well in 96-well plates (VWR International, West Chester, Pa.), and cultured in Dulbecco's Modified Eagle's Medium supplemented with 10% fetal bovine serum (DMEM/FBS) at 37° C., 5% CO2 and atmospheric oxygen. Cells were cultured either in untreated wells or in collagen-coated wells, obtained or prepared as described above. Twenty-four hours later, medium was replaced with fresh medium containing various concentrations of erlotinib (LC Laboratories, Woburn, Mass.), cisplatin (Calbiochem, Gibbstown, N.J.) or methotrexate (Calbiochem, Gibbstown, N.J.). After 5 days' culture in the presence of the drug, live cell numbers were determined using the Cell Titer-Glo® luminescent cell viability assay (Promega, San Luis Obispo, Calif.) according to the manufacturer's instructions. For each cell line, three samples were assayed at each drug concentration.
# (§2) MDA231 cells were seeded at 7,500 cells per well in 96-well plates (VWR International, West Chester, Pa.) in DMEM/FBS at 37° C., 5% CO2 and atmospheric oxygen. Cells were transfected at the time of seeding with […] RNA oligonucleotide, using the Dharmafect transfection reagent according to the manufacturer's instructions (Thermo Scientific, Lafayette, Colo.). Twenty-four hours later, the medium was replaced with medium containing various concentrations of erlotinib (LC Laboratories, Woburn, Mass.). After 5 days continuous exposure to drug, live cell number was determined as described in Example 1. For each condition, (LOX siRNA, LOXL2 siRNA, or non-targeting siRNA), three samples were assayed at each drug concentration. In addition, levels of mRNAs encoding LOX and LOXL 2 were determined in the in the samples transfected with the LOX- and LOXL2-targeted siRNAs, and normalized to levels of RPL19 mRNA (which encodes a ribosomal protein).
# LOX mRNA = assay: Quantitative PCR of LOX mRNA in siRNA-transfected MDA 231 cells; type: cell-based, human; conditions: normalized to RPL19 mRNA, compared to non-targeting siRNA, FIG. 13
# Description: as §2, with “For each condition, (LOX siRNA, LOXL2 siRNA, or non-targeting siRNA), three samples were assayed at each drug concentration.” left out
# (§3) For RNA analysis, mRNA was harvested using an RNEasy Mini kit (Qiagen, Valencia, Calif.) according to the manufacturer's instructions. A quantitative PCR reaction was assembled using the Brilliant II Core reagent kit according to the manufacturer's instructions (Agilent Technologies, Cedar Creek, Tex.). The quantitative PCR reaction cycle was as follows: 30 min at 50° C., 10 min at 95° C. and 40 cycles of 15 sec at 95° C. in combination with 1 min at 60° C.
# LOXL2 mRNA = assay: Quantitative PCR of LOXL2 mRNA in siRNA-transfected MDA 231 cells; type: cell-based, human; conditions: normalized to RPL19 mRNA, compared to non-targeting siRNA, FIG. 13
# Description: as §2, with “For each condition, (LOX siRNA, LOXL2 siRNA, or non-targeting siRNA), three samples were assayed at each drug concentration.” left out
# as §3
# LOXL2 [1] = molecular target: T1, LOXL2 (Homo sapiens, UniProt Q9Y4K0); conditions: as disclosed in US 2009/0053224; cited from earlier work
# T1 sequence (Q9Y4K0 26-774): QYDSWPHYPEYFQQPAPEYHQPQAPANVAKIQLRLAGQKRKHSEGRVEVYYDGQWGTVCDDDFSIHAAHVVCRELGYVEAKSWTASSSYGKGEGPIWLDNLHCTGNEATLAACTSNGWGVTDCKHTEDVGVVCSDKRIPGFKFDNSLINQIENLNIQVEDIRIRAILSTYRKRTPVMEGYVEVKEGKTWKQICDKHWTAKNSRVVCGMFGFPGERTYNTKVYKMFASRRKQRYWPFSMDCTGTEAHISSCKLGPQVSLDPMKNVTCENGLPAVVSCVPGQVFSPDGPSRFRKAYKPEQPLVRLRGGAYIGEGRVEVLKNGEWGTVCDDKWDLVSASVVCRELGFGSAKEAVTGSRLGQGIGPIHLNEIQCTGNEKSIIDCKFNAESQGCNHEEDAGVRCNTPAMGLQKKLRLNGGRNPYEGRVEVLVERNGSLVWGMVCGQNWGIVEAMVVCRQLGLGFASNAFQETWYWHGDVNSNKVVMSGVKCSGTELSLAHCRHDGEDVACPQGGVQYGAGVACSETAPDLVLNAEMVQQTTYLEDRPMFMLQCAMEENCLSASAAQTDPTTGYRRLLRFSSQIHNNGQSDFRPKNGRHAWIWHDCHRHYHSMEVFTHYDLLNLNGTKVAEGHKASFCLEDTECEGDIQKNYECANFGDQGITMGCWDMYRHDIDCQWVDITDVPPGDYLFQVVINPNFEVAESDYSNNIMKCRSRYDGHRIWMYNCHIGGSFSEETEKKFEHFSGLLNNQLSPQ
# LOXL2 [2] = molecular target: T1, LOXL2; conditions: as disclosed in US 2009/0053224; cited from earlier work; remark: listed apart in the source
Molecule,sensitivity of cells to the chemotherapeutic in the presence of anti-LOXL2 antibodies (MDA-MB-435 cells),sensitivity of cells to the chemotherapeutic in the presence of anti-LOXL2 antibodies (Panc-1 cells),sensitivity of cells to the chemotherapeutic in the presence of anti-LOXL2 antibodies (Capan-1 cells),other results
"O=c1[nH]cc(F)c(=O)[nH]1 [5-FU, 5-fluorouracil]",increased sensitivity,increased sensitivity,increased sensitivity,–
"N.N.[Cl][Pt][Cl] [cisplatin (DDP), cis-diaminedichloroplatinum(II)]",increased sensitivity,–,–,–
CC(=O)O[C@@]12CO[C@@H]1C[C@H](O)[C@@]1(C)C(=O)[C@H](O)C3=C(C)[C@@H](OC(=O)[C@H](O)[C@@H](NC(=O)OC(C)(C)C)c4ccccc4)C[C@@](O)([C@@H](OC(=O)c4ccccc4)[C@H]21)C3(C)C [docetaxel],increased sensitivity,increased sensitivity,increased sensitivity,–
COc1cccc2c1C(=O)c1c(O)c3c(c(O)c1C2=O)C[C@@](O)(C(=O)CO)C[C@@H]3O[C@H]1C[C@H](N)[C@H](O)[C@H](C)O1 [doxorubicin],increased sensitivity,increased sensitivity,increased sensitivity,–
"C#Cc1cccc(Nc2ncnc3cc(OCCOC)c(OCCOC)cc23)c1 [erlotinib, N-(3-ethynylphenyl)-6,7-bis(2-methoxyethoxy)quinazolin-4-amine]",–,increased sensitivity,increased sensitivity,"killing of cells by erlotinib (MDA231 cells; MDA 231 cells on collagen matrix, transfected with siRNA nonhomologous to LOX or LOXL2, FIG. 14): resistant to killing"
Nc1ccn([C@@H]2O[C@H](CO)[C@@H](O)C2(F)F)c(=O)n1 [gemcitabine],increased sensitivity,increased sensitivity,increased sensitivity,–
CN(Cc1cnc2nc(N)nc(N)c2n1)c1ccc(C(=O)N[C@@H](CCC(=O)O)C(=O)O)cc1 [methotrexate],increased sensitivity,–,–,–
"LOX-targeted siRNA: short RNA homologous to regions near the 3' end of LOX mRNA, from Invitrogen: ACAGGGAUUGAGUCCUGGCUGUUAU (listed as RNA, chemistry not given here)",–,–,–,effect of siRNA transfection on sensitivity of the cells to erlotinib (MDA231 cells; FIG. 14): greatly increased sensitivity; effect of siRNA on sensitivity of the cells to erlotinib (MDA231 cells): little or no effect; reduction of levels of LOX mRNA (LOX mRNA): over two-fold
"LOXL2-targeted siRNA: siRNA homologous to the second SRCR domain of LOXL2, from Invitrogen: UCAACGAAUUGUCAAAUUUGAACCC (listed as RNA, chemistry not given here)",–,–,–,effect of siRNA transfection on sensitivity of the cells to erlotinib (MDA231 cells; FIG. 14): greatly increased sensitivity; effect of siRNA on sensitivity of the cells to erlotinib (MDA231 cells): little or no effect; reduction of levels of LOXL2 mRNA (LOXL2 mRNA): five-fold
"M20: monoclonal anti-LOXL2 antibody described in co-owned US 2009/0053224; variable regions SEQ ID NO: 12 and 13 (antibody, V domains shown) VH: MEWSRVFIFLLSVTAGVHSQVQLQQSGAELVRPGTSVKVSCKASGYAFTYYLIEWVKQRPGQGLEWIGVINPGSGGTNYNEKFKGKATLTADKSSSTAYMQLSSLTSDDSAVYFCARNWMNFDYWGQGTTLTVSS VL: MRCLAEFLGLLVLWIPGAIGDIVMTQAAPSVSVTPGESVSISCRSSKSLLHSNGNTYLYWFLQRPGQSPQFLIYRMSNLASGVPDRFSGSGSGTAFTLRISRVEAEDVGVYYCMQHLEYPYTFGGGTKLEIK",–,–,–,extent of inhibition of LOXL2 enzymatic activity (LOXL2 [1]): partial inhibitor; mode of inhibition of LOXL2 enzymatic activity (LOXL2 [1]): non-competitive inhibitor; binding site on LOXL2 (LOXL2 [2]): binds to the SRCR3-4 domain of LOXL2

# — patent US9289447B2, “Chemotherapeutic methods and compositions” (Gilead Biologics, Inc., priority 2009, dated 2016)
